# Key:
# SMARCA4 = molecular target: T1, SMARCA4 (Homo sapiens, UniProt P51532); assay: SMARCA4 HiBiT degradation assay in HeLa cells; type: cell-based; conditions: 18 hours incubation, Nano-Glo HiBiT Lytic detection
# T1 construct: SMARCA2-HiBiT knock-in Hela monoclonal cell (CS302366) and SMARCA4-HiBiT knock-in Hela monoclonal cell (CS3023226) were purchased from Promega; host or cells: HeLa SMARCA4-HiBiT knock-in monoclonal cells (heterozygous knock-in)
# Experimental: (§1) Example A. SMARCA2 HiBiT and SMARCA4 HiBiT Degradation Assay
# (§2) HiBiT peptide knock-in of SMARCA2 in LgBiT expressing HEK293T cells was performed by CRISPR-mediated tagging system as described Promega. The homozygous HiBiT knock-in on c-terminus SMARCA2 was confirmed by sanger sequence. SMARCA2-HiBiT knock-in Hela monoclonal cell (CS302366) and SMARCA4-HiBiT knock-in Hela monoclonal cell (CS3023226) were purchased from Promega. The heterozygous HiBiT-knock-in was confirmed by sanger sequence in both SMARCA2-HiBiT and SMARCA4-HiBiT monoclonal cells.
# (§3) SMARCA2 HiBiT and SMARCA4 HiBiT degradation assay in HeLa cells
# (§4) Dispense 10 ul aliquot of prepared Hela-SMARCA2-HiBiT or Hela-SMARCA4-HiBiT cells (1:1 ratio of cells:Trypan Blue (#1450013, Bio-Rad)) onto cell counting slide (#145-0011, Bio-Rad) and obtain cell density and cell viability using cell counter (TC20, Bio-Rad). Remove appropriate volume of resuspended cells from culture flask to accommodate 2500 cells/well @20 μL/well. Transfer Hela-HiBiT cells to 50 mL conical (#430290, Corning). Spin down at 1000 rpm for 5 min using tabletop centrifuge (SPINCHRON 15, Beckman). Discard supernatant and resuspend cell pellet in modified EMEM (#30-2003, ATCC) cell culture media containing 10% FBS (F2422-500ML, Sigma), and 1X Penicillin/Streptomycin (200 g/L) (30-002-CI, Corning) to a cell density of 125,000 cells/mL. Dispense 20 μLof resuspended Hela-HiBit cells per well in 384-well TC treated plate (#12-565-343, Thermo Scientific) using standard cassette (#50950372, Thermo Scientific) on Multidrop Combi (#5840310, Thermo Scientific) inside laminar flow cabinet.
# (§5) Compounds were dissolved in DMSO to make 10 mM stock and 3-fold series dilutions were further conducted keeping the highest concentration 10 RM. Dispense test compounds onto plates using digital liquid dispenser (D300E, Tecan). Incubate plates in humidified tissue culture incubator @37° C. for 18 hours. Add 20 μL of prepared Nano-Glo® HiBiT Lytic detection buffer (N3050, Promega) to each well of 384-well plate using small tube cassette (#24073295, Thermo Scientific) on Multidrop Combi, incubate @ RT for 30-60 min. Read plates on microplate reader (Envision 2105, PerkinElmer) using 384 well Ultra-Sensitive luminescence mode. Raw data files and compound information reports are swept into centralized data lake and deconvoluted using automated scripts designed by TetraScience, Inc. Data analysis, curve-fitting and reporting done in Dotmatics Informatics Suite using Screening Ultra module.
# (§6) In Table 1, A=DC50<0.1 RM; B=0.1 μM≤DC50<1 μM and C=DC50>1 μM. In Table 4, A=Dmax>75% and B=50%<Dmax<75% and C=Dmax<50%.
# SMARCA2 = molecular target: T2, SMARCA2 (Homo sapiens, UniProt P51531); assay: SMARCA2 HiBiT degradation assay in HeLa cells; type: cell-based; conditions: 18 hours incubation, Nano-Glo HiBiT Lytic detection
# T2 construct: SMARCA2-HiBiT knock-in Hela monoclonal cell (CS302366) and SMARCA4-HiBiT knock-in Hela monoclonal cell (CS3023226) were purchased from Promega; host or cells: HeLa SMARCA2-HiBiT knock-in monoclonal cells (heterozygous knock-in)
# T2 sequence (P51531 whole entry): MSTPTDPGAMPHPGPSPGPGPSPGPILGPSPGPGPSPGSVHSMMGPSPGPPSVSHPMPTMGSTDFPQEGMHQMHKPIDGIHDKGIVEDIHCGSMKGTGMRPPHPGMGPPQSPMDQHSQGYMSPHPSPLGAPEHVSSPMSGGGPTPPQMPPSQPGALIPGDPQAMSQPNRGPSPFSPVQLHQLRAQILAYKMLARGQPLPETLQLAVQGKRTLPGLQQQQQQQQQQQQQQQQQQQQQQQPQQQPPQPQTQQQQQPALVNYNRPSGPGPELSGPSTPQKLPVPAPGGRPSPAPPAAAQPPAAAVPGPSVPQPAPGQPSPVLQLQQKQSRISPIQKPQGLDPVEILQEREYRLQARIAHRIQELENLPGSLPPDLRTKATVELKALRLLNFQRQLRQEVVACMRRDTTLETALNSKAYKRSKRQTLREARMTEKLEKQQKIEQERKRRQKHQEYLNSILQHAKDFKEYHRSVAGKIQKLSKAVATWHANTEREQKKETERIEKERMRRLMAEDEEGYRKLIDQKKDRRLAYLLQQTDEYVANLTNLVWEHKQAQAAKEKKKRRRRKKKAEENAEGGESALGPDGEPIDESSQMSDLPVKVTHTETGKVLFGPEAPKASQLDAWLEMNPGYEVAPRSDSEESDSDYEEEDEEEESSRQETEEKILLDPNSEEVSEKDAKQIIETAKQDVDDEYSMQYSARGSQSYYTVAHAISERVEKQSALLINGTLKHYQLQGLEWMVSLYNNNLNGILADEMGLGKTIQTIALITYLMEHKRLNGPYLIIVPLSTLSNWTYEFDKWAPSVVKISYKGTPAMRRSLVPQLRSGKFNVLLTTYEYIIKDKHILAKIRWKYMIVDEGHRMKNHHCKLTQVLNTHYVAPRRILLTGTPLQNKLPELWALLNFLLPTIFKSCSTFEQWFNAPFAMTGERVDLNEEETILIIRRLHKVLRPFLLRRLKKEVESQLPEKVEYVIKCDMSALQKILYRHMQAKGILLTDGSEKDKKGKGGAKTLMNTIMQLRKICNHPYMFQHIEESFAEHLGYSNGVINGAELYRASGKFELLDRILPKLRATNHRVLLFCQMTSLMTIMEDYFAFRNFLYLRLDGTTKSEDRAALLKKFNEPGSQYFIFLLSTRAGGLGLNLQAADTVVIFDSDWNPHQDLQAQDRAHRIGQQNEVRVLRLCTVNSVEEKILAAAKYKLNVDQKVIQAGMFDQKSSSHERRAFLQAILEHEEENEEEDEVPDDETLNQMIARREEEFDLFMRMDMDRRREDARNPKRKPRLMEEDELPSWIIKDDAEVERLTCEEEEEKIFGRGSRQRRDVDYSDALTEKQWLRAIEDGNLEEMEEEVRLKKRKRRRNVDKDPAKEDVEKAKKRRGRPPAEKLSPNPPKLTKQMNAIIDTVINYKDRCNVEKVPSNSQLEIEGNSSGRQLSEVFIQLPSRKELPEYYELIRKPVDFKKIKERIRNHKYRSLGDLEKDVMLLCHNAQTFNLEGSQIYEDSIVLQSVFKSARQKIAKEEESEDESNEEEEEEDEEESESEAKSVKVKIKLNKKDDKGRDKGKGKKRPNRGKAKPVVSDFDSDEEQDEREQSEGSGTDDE
# Experimental: as §1, §2, §3, §4, §5, §6
# T1 sequence (P51532 whole entry): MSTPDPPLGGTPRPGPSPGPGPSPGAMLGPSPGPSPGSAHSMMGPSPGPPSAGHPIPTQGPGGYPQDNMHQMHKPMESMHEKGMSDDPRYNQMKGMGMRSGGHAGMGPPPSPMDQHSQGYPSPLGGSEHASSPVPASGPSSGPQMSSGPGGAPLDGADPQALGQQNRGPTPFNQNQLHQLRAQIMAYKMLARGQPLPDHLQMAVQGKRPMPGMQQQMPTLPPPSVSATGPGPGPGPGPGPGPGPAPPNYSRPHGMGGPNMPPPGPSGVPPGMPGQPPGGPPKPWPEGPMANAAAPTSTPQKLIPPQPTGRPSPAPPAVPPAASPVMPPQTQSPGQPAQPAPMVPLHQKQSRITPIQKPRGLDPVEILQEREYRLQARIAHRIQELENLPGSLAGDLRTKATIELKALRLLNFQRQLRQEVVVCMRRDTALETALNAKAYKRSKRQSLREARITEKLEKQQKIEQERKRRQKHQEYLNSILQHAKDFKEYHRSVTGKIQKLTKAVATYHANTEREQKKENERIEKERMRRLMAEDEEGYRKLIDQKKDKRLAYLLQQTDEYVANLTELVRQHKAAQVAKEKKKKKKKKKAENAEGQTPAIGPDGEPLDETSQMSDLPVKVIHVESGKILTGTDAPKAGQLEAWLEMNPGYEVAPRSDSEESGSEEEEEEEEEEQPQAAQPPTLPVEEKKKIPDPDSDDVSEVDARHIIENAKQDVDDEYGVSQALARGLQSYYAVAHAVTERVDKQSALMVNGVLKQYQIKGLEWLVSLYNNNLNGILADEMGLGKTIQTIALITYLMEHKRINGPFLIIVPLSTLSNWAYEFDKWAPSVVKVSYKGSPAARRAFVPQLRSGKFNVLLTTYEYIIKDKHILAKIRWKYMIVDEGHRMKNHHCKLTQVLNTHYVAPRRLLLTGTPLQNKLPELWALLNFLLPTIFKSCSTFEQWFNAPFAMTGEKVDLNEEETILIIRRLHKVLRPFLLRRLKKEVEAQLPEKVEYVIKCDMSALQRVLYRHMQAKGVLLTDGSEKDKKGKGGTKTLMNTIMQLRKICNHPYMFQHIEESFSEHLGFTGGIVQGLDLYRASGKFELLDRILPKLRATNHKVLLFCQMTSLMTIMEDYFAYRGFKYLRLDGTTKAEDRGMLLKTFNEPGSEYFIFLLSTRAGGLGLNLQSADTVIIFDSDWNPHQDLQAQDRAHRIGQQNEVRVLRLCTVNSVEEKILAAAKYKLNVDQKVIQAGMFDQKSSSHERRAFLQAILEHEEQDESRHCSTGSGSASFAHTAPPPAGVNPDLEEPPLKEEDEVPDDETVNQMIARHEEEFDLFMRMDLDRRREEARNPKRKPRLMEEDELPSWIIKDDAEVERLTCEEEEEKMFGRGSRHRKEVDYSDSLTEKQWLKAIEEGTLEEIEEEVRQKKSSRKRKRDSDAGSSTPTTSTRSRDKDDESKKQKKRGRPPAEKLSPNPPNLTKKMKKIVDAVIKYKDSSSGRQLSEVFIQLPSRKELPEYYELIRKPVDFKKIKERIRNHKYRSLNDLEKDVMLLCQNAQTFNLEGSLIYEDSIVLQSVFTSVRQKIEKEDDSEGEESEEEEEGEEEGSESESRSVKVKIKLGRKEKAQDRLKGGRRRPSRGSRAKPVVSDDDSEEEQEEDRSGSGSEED
Compound,DC50 (SMARCA4) [µM],Dmax (SMARCA4) [%],DC50 (SMARCA2) [µM],Dmax (SMARCA2) [%]
"O=C1CCC(n2ncc3ccc(N4CCC(CN5C[C@@H]6[C@H](C5)[C@H]6CN5CCN6c7cc(-c8ccccc8O)nnc7NC[C@H]6C5)CC4)cc32)C(=O)N1 (stereo partly drawn) [Example 6, 3-(6-(4-(((1R,5S,6r)-6-(((S)-2-(2-hydroxyphenyl)-5,6,6a,7,9,10-hexahydro-8H-pyrazino[1′,2′:4,5]pyrazino[2,3-c]pyridazin-8-yl)methyl)-3-azabicyclo[3.1.0]hexan-3-yl)methyl)piperidin-1-yl)-1H-indazol-1-yl)piperidine-2,6-dione]",> 1,< 50,0.1 to 1,< 50
"C[C@@H]1CN(CC2CCN(c3ccnc(C(=O)NC4CCC(=O)NC4=O)c3)CC2)C[C@H](C)N1C(=O)N1CCN2c3cc(-c4ccccc4O)nnc3NC[C@H]2C1 (stereo partly drawn) [Example 7, N-(2,6-dioxopiperidin-3-yl)-4-[4-[[(3R,5S)-4-[(1OS)-4-(2-hydroxyphenyl) 1,5,6,8,12-pentazatricyclo[8.4.0.02,7]tetradeca-2,4,6-triene-12-carbonyl]-3,5-dimethylpiperazin-1-yl]methyl]piperidin-1-yl]pyridine-2-carboxamide]",> 1,–,< 0.1,50 to 75
"C[C@@H]1CN(CC2CCN(c3ccc4ncn(C5CCC(=O)NC5=O)c(=O)c4c3)CC2)C[C@H](C)N1C(=O)N1CCN2c3cc(-c4ccccc4O)nnc3NC[C@H]2C1 (stereo partly drawn) [Example 2, 3-(6-(4-(((3R,5S)-4-((S)-2-(2-hydroxyphenyl)-6,6a,7,8,9,10-hexahydro-5H-pyrazino[1′,2′:4,5]pyrazino[2,3-c]pyridazine-8-carbonyl)-3,5-dimethylpiperazin-1-yl)methyl)piperidin-1-yl)-4-oxoquinazolin-3(4H)-yl)piperidine-2,6-dione]",0.1 to 1,50 to 75,< 0.1,50 to 75
"C[C@@H]1CN(CC2CCN(c3ccc4c(=O)n(C5CCC(=O)NC5=O)ncc4c3)CC2)C[C@H](C)N1C(=O)N1CCN2c3cc(-c4ccccc4O)nnc3NC[C@H]2C1 (stereo partly drawn) [Example 3, 3-(6-(4-(((3R,5S)-4-((S)-2-(2-hydroxyphenyl)-6,6a,7,8,9,10-hexahydro-5H-pyrazino[1′,2′:4,5]pyrazino[2,3-c]pyridazine-8-carbonyl)-3,5-dimethylpiperazin-1-yl)methyl)piperidin-1-yl)-1-oxophthalazin-2(1H)-yl)piperidine-2,6-dione]",0.1 to 1,< 50,< 0.1,50 to 75
"Cn1nc(N2CCC(=O)NC2=O)c2ccc(N3CCC(CN4C[C@@H]5[C@H](C4)[C@H]5CN4CCN5c6cc(-c7ccccc7O)nnc6NC[C@H]5C4)CC3)cc21 [Example 8, 1-[6-[4-[[(1S,5R)-6-[[(10S)-4-(2-hydroxyphenyl)-1,5,6,8,12-pentazatricyclo[8.4.0.02,7]tetradeca-2,4,6-trien-12-yl]methyl]-3-azabicyclo[3.1.0]hexan-3-yl]methyl]piperidin-1-yl]-1-methylindazol-3-yl]-1,3-diazinane-2,4-dione]",< 0.1,50 to 75,< 0.1,50 to 75
"C[C@@H]1CN(CC2CCN(c3ccc4cn(C5CCC(=O)NC5=O)nc4c3)CC2)C[C@H](C)N1C(=O)N1CCN2c3cc(-c4ccccc4O)nnc3NC[C@H]2C1 (stereo partly drawn) [Example 4, 3-(6-(4-(((3S,5R)-4-((S)-2-(2-hydroxyphenyl)-6,6a,7,8,9,10-hexahydro-5H-pyrazino[1′,2′:4,5]pyrazino[2,3-c]pyridazine-8-carbonyl)-3,5-dimethylpiperazin-1-yl)methyl)piperidin-1-yl)-2H-indazol-2-yl)piperidine-2,6-dione]",< 0.1,50 to 75,< 0.1,50 to 75

# More lines, now with the values ahead:
DC50 (SMARCA4) [µM],Dmax (SMARCA4) [%],DC50 (SMARCA2) [µM],Dmax (SMARCA2) [%],Compound
< 0.1,50 to 75,0.1 to 1,< 50,"CC[C@]12CNc3nnc(-c4ccccc4O)cc3N1C[C@H](Oc1ccc(CN3CCN(c4ccc(N5CCC(=O)NC5=O)cc4)CC3)cn1)C2 [Example 9, 1-(4-(4-((6-(((6aS,8R)-6a-ethyl-2-(2-hydroxyphenyl)-5,6,6a,7,8,9-hexahydro-pyrrolo[1′,2′:4,5]pyrazino[2,3-c]pyridazin-8-yl)oxy)pyridin-3-yl)methyl)piperazin-1-yl)phenyl)dihydropyrimidine-2,4(1H,3H)-dione]"
0.1 to 1,< 50,< 0.1,50 to 75,"CC[C@]12CNc3nnc(-c4ccccc4O)cc3N1C[C@H](Oc1ccc(CN3CCN(c4ccc(C(=O)NC5CCC(=O)NC5=O)cc4)CC3)cn1)C2 (stereo partly drawn) [Example 12, N-(2,6-dioxopiperidin-3-yl)-4-(4-((6-(((6aS,8R)-6a-ethyl-2-(2-hydroxyphenyl)-5,6,6a,7,8,9-hexahydropyrrolo[1′,2′:4,5]pyrazino[2,3-c]pyridazin-8-yl)oxy)pyridin-3-yl)methyl)piperazin-1-yl)benzamide]"
< 0.1,> 75,< 0.1,50 to 75,"O=C1CCC(c2ccc(C3CCN(Cc4ccc(O[C@H]5CN6c7cc(-c8ccccc8O)nnc7NC[C@@]6(C(F)F)C5)nc4)CC3)cc2)C(=O)N1 (stereo partly drawn) [Example 15, 3-(4-(1-((6-(((6aR,8R)-6a-(difluoromethyl)-2-(2-hydroxyphenyl)-5,6,6a,7,8,9-hexahydropyrrolo[1′,2′:4,5]pyrazino[2,3-c]pyridazin-8-yl)oxy)pyridin-3-yl)methyl)piperidin-4-yl)phenyl)piperidine-2,6-dione]"
< 0.1,> 75,< 0.1,> 75,"CC[C@]12CNc3nnc(-c4ccccc4O)cc3N1C[C@H](Oc1ccc(CN3CCN(c4ccc(NC5CCC(=O)NC5=O)cc4F)CC3)cn1)C2 (stereo partly drawn) [Example 11, 3-((4-(4-((6-(((6aS,8R)-6a-ethyl-2-(2-hydroxyphenyl)-5,6,6a,7,8,9-hexahydro-pyrrolo[1′,2′:4,5]pyrazino[2,3-c]pyridazin-8-yl)oxy)pyridin-3-yl)methyl)piperazin-1-yl)-3-fluorophenyl)amino)piperidine-2,6-dione]"
< 0.1,> 75,< 0.1,> 75,"CC[C@]12CNc3nnc(-c4ccccc4O)cc3N1C[C@H](Oc1ccc(CN3CCN(c4ccc(C5CCC(=O)NC5=O)cc4)CC3)cn1)C2 (stereo partly drawn) [Example 14, 3-(4-(4-((6-(((6aS,8R)-6a-ethyl-2-(2-hydroxyphenyl)-5,6,6a,7,8,9-hexahydro-pyrrolo[1′,2′:4,5]pyrazino[2,3-c]pyridazin-8-yl)oxy)pyridin-3-yl)methyl)piperazin-1-yl)phenyl)piperidine-2,6-dione]"
> 1,< 50,0.1 to 1,< 50,"CC[C@]12CNc3nnc(-c4ccccc4O)cc3N1C[C@H](Oc1ccc(CN3CCN(c4ccc(C(=O)NC5CCC(=O)NC5=O)c(F)c4)CC3)cn1)C2 (stereo partly drawn) [Example 13, N-(2,6-dioxopiperidin-3-yl)-4-(4-((6-(((6aS,8R)-6a-ethyl-2-(2-hydroxyphenyl)-5,6,6a,7,8,9-hexahydropyrrolo[1′,2′:4,5]pyrazino[2,3-c]pyridazin-8-yl)oxy)pyridin-3-yl)methyl)piperazin-1-yl)-2-fluorobenzamide]"
< 0.1,> 75,< 0.1,> 75,"CC[C@@]12CNc3nnc(-c4ccccc4O)cc3N1C[C@H](Oc1ccc(CN3CCC(c4ccc(C5CCC(=O)NC5=O)cc4)CC3)cn1)C2 (stereo partly drawn) [Example 16, 3-(4-(1-((6-(((6aR,8R)-6a-ethyl-2-(2-hydroxyphenyl)-5,6,6a,7,8,9-hexahydro-pyrrolo[1′,2′:4,5]pyrazino[2,3-c]pyridazin-8-yl)oxy)pyridin-3-yl)methyl)piperidin-4-yl)phenyl)piperidine-2,6-dione]"
